“Also recorded” adds a separate entry of the source. Bridge positions count the residues as written; N and C are the ends. Ends that are not written are not given here.
Legend:
RhoprCCAPR [1] = experiment: Functional receptor expression (aequorin bioluminescence, calcium mobilization) assay in CHO-WTA11 cells; type: cell-based, Rhodnius prolixus; conditions: for Activation of RhoprCCAPR (in words): CHO-WTA11 cells expressing RhoprCCAPR, bioluminescent response
Method: The coding region of RhoprCCAPR (1,128 bp) (RhoprCCAPR) was amplified from unfed 5th instar CNS cDNA with gene specific primers (Table 1C) using a Q5 High fidelity DNA polymerase (New England Biolabs, Pickering, ON). At the 5′ end before the ATG initiation codon, the Kozak translation initiation sequence ([…]) was introduced since this is required for optimal translation by eukaryotic ribosomes (Table 1C) [26]–[28]. The PCR product was run on a 0.8% agarose gel for 40 mins (160V) and the correct size of band was excised and purified (Promega, Madison, WI, USA). This was then subcloned into the pGEM T easy vector (Promega, Madison, WI) to verify its sequence. The insert with the Kozak sequence was excised using restriction enzyme (NotI) and subcloned into the expression vector, pcDNA™3.1(+) (Invitrogen, Carlsbad, CA) to express in Chinese hamster ovary (CHO-K1) WTA11, mammalian cells (Euroscreen S. A., Belgium; provided by Prof. Dr. M. Parmentier and Dr. M. Detheux; Brussels, Belgium).
RhoprCCAPR was transiently expressed in CHO-WTA11 cells that stably express promiscuous Gα16 and apoaequorin. This cell line has been used extensively for insect GPCR functional assays. The transfection was performed using X-treme HP DNA transfection reagent (Roche Applied Science, Indianapolis, IN) with the ratio of 3 (transfection reagent) to 1 (RhoprCCAPR/pcDNA™3.1(+) or empty pcDNA™3.1(+) vector) according to the manufacture’s protocol (Roche Applied Science, Indianapolis, IN). Cells were grown in the complete Dulbecco’s Modified Eagle Medium Nutrient Mixture F12-Ham (DMEM/F12, 10% fetal bovine serum, FBA, 100 IU/ml penicillin/streptomycin (Invitrogen, Carlsbad, CA)) in the 5% CO2 37°C incubator. After 48 hours, transfected cells were incubated with 5 µM Coelentarazine for 4 hours (Invitrogen, Carlsbad, CA) at room temperature in the dark. Interaction between ligand and the cloned RhoprCCAPR leads to a bioluminescent response that is mediated by the IP3/Ca^2+ signaling pathway. The luminescence assay was performed on opaque 96-well microplates (Corning, Lowell, MA). 50 µl of cells were introduced into each well of the 96-well plate that contained either controls or different concentration of peptides (RhoprCCAP, RhoprCorazonin, RhoprAKH and GNDNFMRFa) (Table 2) and the changes of luminescence were recorded for 20 sec. Wells only containing DMEM/0.1% BSA medium served as a negative control, while wells containing 50nM ATP served as a positive control. All luminescence values were corrected for background values from wells containing only DMEM/BSA medium and all values were calculated as maximum percentage difference. The response for each ligand concentration in replica wells and from at least three replica plates was averaged for analysis. GraphPad prism 5 (version 5.03) was used to analyze and generate the data.

CCAPR1 = conditions: read-out: EC50, T. castaneum CCAPR1; cited from earlier work
Source text: (§1) The improved sensitivity of this cell line over CHO-K cells is due to presence of the promiscuous Gα proteins.

CCAP receptor (CG6111) = conditions: read-out: EC50, D. melanogaster CCAP receptor (CG6111); cited from earlier work
Source text: as §1

CCAP receptor = conditions: read-out: EC50, A. gambiae CCAP receptor; cited from earlier work
Source text: as §1

CCAPR2 = conditions: read-out: EC50, T. castaneum CCAPR2; cited from earlier work
Source text: as §1

heart of R. prolixus = conditions: cited from earlier work
RhoprCCAPR [2] = experiment: Calcium mobilization assay with RhoprCCAPR expressed in CHO-K1 cells; type: cell-based, Rhodnius prolixus; conditions: without promiscuous Gα, read-out: EC50 using CHO-K1 cells
Method: To determine the endogenous ligand for the isolated putative RhoprCCAPR in R. prolixus, we used a calcium mobilization assay which expresses the RhoprCCAPR clone in CHO-K1 cells. […] The receptor was not activated by other peptides that were tested, including RhoprAKH, RhoprCorazonin and an extended RhoprFMRFa, GNDNFMRFa (Figure 5A, 5B, Table 2). […] Thus, our control data illustrate that the functional receptor assay system is only activated in cells that are transfected with RhoprCCAPR and not by any endogenous receptors in these CHO cells.

hindgut of R. prolixus = tested on: hindgut of R. prolixus; design: method as in earlier work; conditions: dose-dependent; ref 31 (so in the source); cited from earlier work
[3] = tested on: dorsal vessel of R. prolixus; experiment: In vitro heartbeat (dorsal vessel preparation, impedance converter); design: species or system Rhodnius prolixus
Method: Adult R. prolixus were anesthetized with CO2 for 10 sec and 1 µl of 2 µg of dsCCAPR was injected into the thorax using a 5 µl Hamilton syringe to knock down RhoprCCAPR transcript levels. As a control, groups of R. prolixus were injected with either 1 µl of dsARG or had no injection. R. prolixus were left for 1 hour at room temperature to recover and then placed into an incubator at 28°C on a 16 h:8 h light/dark cycle.
In vitro heartbeat was monitored as described in Lee and Lange (2011) with minor modifications. The ventral cuticle, digestive and reproductive systems were dissected and removed under RNase free saline. The dorsal vessel and dorsal diaphragm remained attached to the dorsal cuticle. Then, the dorsal cuticle was placed onto a Sylgard-coated dissecting dish and covered with 100 µL of saline. Electrodes attached to an impedance converter (UFI model 2991, Morro Bay, CA, USA) were placed between the fifth and sixth abdominal segments on either side of the dorsal vessel anterior to the alary. The preparation was stabilized in 100 µL of saline for 10 min at room temperature, and then 50 µL of 10^−9M CCAP was exchanged for 50 µL of saline. Heartbeat frequency was measured from the traces observed on a Linear Flat-bed single channel chart recorder. The preparation was washed with saline for 5 mins post application of CCAP. Heartbeat frequency was determined for 1 min before and after the application of 10^−9M CCAP. The response to 10^−9M CCAP was quantified by measuring the increase in frequency compared to saline, which was then expressed as a percentage of the maximum change in frequency for each preparation. Pools of tissues including dorsal vessel/fat body/trachea were collected and the percentage of knockdown was measured by qPCR as indicated above.

[4] = tested on: midgut α-amylase and protease activity; conditions: cited from earlier work
Source text: Crustacean cardioactive peptide (CCAP) is a cyclic nonapeptide that is conserved in arthropods. CCAP was first isolated as a cardioaccelerator from the pericardial organs of the shore crab, Carcinus maenas, [8]. Later, it was biochemically isolated from the nervous system of insects, [10]. The important functions of CCAP in insects have been well documented. […] The CCAP may act in a paracrine manner, released from CCAP-containing midgut endocrine cells, [44].

[5] = tested on: heart rate in Drosophila melanogaster; conditions: cited from earlier work
Source text: (§2) Crustacean cardioactive peptide (CCAP) is a cyclic nonapeptide that is conserved in arthropods. CCAP was first isolated as a cardioaccelerator from the pericardial organs of the shore crab, Carcinus maenas, [8]. Later, it was biochemically isolated from the nervous system of insects, [10]. The important functions of CCAP in insects have been well documented.

[6] = tested on: heart rate in Manduca sexta; conditions: cited from earlier work
Source text: as §2

[7] = tested on: oviduct of Locusta migratoria; conditions: cited from earlier work
Source text: as §2

[8] = tested on: heartbeat frequency in some insects; conditions: 34 (so in the source); cited from earlier work
Source text: (§3) Also, these peptides are functionally inter-related. […] [33]. In M. sexta, AKH mobilize lipids from the fat body during flight or locomotion when heartbeat frequency also increases.

corpora cardiaca = conditions: 33 (so in the source); cited from earlier work
Source text: as §3

[9] = CHO-WTA11 cells stably expressing Gα16 and apoaequorin, luminescence recorded 20 sec, averaged from at least three replica plates

GNDNFMRF-NH2 [ExtendedFMRFa]
Activation of RhoprCCAPR (in words) (RhoprCCAPR [1]; listed as GNDNFMRFa): not activated
EC50 (M) RhoprCCAPR (RhoprCCAPR [1]; [9]): Not active

PFCNAFTGC-NH2 (disulfide 3-9 (inferred)) [RhoprCCAP]
EC50 (CCAPR1): 0.624 µM
EC50 (CCAP receptor (CG6111)): 0.00054 µM
EC50 (CCAP receptor): 0.001 µM
EC50 (CCAPR2): 0.022 µM
Effect on heartbeat frequency in the heart, R. prolixus (Discussion) (heart of R. prolixus; dose-dependent, ref 31 (so in the source)): increases heartbeat frequency and contraction in a dose-dependent manner
Effect on heartbeat frequency, R. prolixus (heart of R. prolixus; in vitro, 5th instar): increases heartbeat frequency in vitro; also recorded: increases the frequency of the heartbeat in R. prolixus in a reversible, dose-dependent manner
EC50 (RhoprCCAPR [2]): 0.341 ± 0.0088 µM
Effect on hindgut contraction (hindgut of R. prolixus): increases heartbeat frequency and contraction in a dose-dependent manner
Effect of CCAP on heartbeat after RhoprCCAPR knockdown (in words) ([3]; 10^−9 M CCAP, RhoprCCAPR knocked down by dsCCAPR, in vitro): loss of function; also recorded: unresponsive; also recorded: eliminates the CCAP-induced increase in vitro; also recorded: cardioacceleratory effect is abolished
In vitro heartbeat frequency in the presence of 10^−9 M CCAP, dsARG treated bugs ([3]; dsARG-treated bugs, saline baseline 10.4±2.9, paired t test p = 0.0376, vs dsCCAPR unpaired p = 0.0318, mean ± SEM, n = 5 (Figure 6)): 15.6±3.9 beats/min
In vitro heartbeat frequency in the presence of 10^−9 M CCAP, dsCCAPR treated bugs ([3]; dsCCAPR-treated bugs, saline baseline 5.4±3.0, paired t test p = 0.1688, vs dsARG unpaired p = 0.0318, mean ± SEM, n = 5 (Figure 6)): 4.6±3.3 beats/min
Effect on enzyme secretion, P. americana [4]: regulates enzyme secretion
Effect on α-amylase and protease activity ([4]; isolated midgut): increases α-amylase and protease activity
Effect on heart rate, D. melanogaster [5]: triggers increasing heart rate
Effect on heart rate, M. sexta [6]: triggers increasing heart rate
Effect on oviduct contractions [7]: modulates oviduct contractions
EC50 (RhoprCCAPR [1]; [9]): 0.0122 µM
Effect on heartbeat frequency in some insects [8]: increase heartbeat frequency
Effect on AKH release (corpora cardiaca): influences AKH release

pQLTFSTDW-NH2 [RhoprAKH, adipokinetic hormone, pQLTFSTDW-NH2]
Activation of RhoprCCAPR (in words) (RhoprCCAPR [1]): not activated
Activation of RhoprCCAPR (in words) (RhoprCCAPR [1]; listed as AKH): neither AKH nor corazonin activate the RhoprCCAPR
EC50 (M) RhoprCCAPR (RhoprCCAPR [1]; [9]): Not active
Effect on heartbeat frequency in some insects [8]: increase heartbeat frequency

pQTFQYSRGWTN-NH2 [Corazonin]
Activation of RhoprCCAPR (in words) (RhoprCCAPR [1]): neither AKH nor corazonin activate the RhoprCCAPR
Activation of RhoprCCAPR (in words) (RhoprCCAPR [1]; listed as RhoprCorazonin): not activated
EC50 (M) RhoprCCAPR (RhoprCCAPR [1]; [9]): Not active
Effect on heartbeat frequency in some insects [8]: increase heartbeat frequency

From publication PMC3706402, “Identification and Expression of the CCAP Receptor in the Chagas’ Disease Vector, Rhodnius prolixus, and Its Involvement in Cardiac Control” (PLoS ONE, 2013)
